According to patent publication US10405547B2, “Substituted cyclic amides as herbicides” (FMC Corporation, priority 2015, dated 2019):

Tests used:
Format in all cases: in vivo
[1] = system: ryegrass, Italian (Lolium multiflorum); assay: Test A postemergence, Italian ryegrass; conditions: visual injury, 0 to 100 scale (0 no effect, 100 complete control), approximately 10 days
How it was run: (§1)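 Visual injury on a 0 to 100 scale, about 10 days post-spray in the greenhouse. Postemergence plants measured 2–10 cm at one to two leaves; preemergence pots received a directed soil spray. Soil was a loam–sand blend.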

[2] = system: pigweed (Amaranthus retroflexus); assay: Test A preemergence, pigweed; conditions: 0 to 100 scale (0 no effect, 100 complete control)
How it was run: as §1

[3] = system: sedge, umbrella (small-flower umbrella sedge, Cyperus difformis); assay: Test B flooded paddy test, umbrella sedge; conditions: 250 g ai/ha, applied to paddy water, visual rating after 13 to 15 days, scale 0 (no effect) to 100 (complete control)
Description: (§2) At time of treatment, test pots were flooded to 3 cm above the soil surface, treated by application of test compounds directly to the paddy water, and then maintained at that water depth for the duration of the test. Treated plants and controls were maintained in a greenhouse for 13 to 15 days, after which time all species were compared to controls and visually evaluated. […] A dash (-) response means no test result.

[4] = system: ryegrass, Italian (Lolium multiflorum); assay: Test A preemergence, Italian ryegrass; conditions: 0 to 100 scale (0 no effect, 100 complete control)
How it was run: as §1

rice (Oryza sativa) = assay: Test B flooded paddy test, rice; conditions: 250 g ai/ha, applied to paddy water, visual rating after 13 to 15 days, scale 0 (no effect) to 100 (complete control)
Description: as §2

[5] = system: ragweed (common ragweed, Ambrosia elatior); assay: Test A postemergence, ragweed; conditions: visual injury, 0 to 100 scale (0 no effect, 100 complete control), approximately 10 days
How it was run: as §1

[6] = system: pigweed (Amaranthus retroflexus); assay: Test A postemergence, pigweed; conditions: visual injury, 0 to 100 scale (0 no effect, 100 complete control), approximately 10 days
How it was run: as §1

kochia (Kochia scoparia) [7] = assay: Test A postemergence, kochia; conditions: visual injury, 0 to 100 scale (0 no effect, 100 complete control), approximately 10 days
How it was run: as §1

[8] = system: ragweed (common ragweed, Ambrosia elatior); assay: Test A preemergence, ragweed; conditions: 0 to 100 scale (0 no effect, 100 complete control)
How it was run: as §1

[9] = system: foxtail, giant (Setaria faberii); assay: Test A preemergence, giant foxtail; conditions: 0 to 100 scale (0 no effect, 100 complete control)
How it was run: as §1

corn (Zea mays) = assay: Test A postemergence, corn; conditions: visual injury, 0 to 100 scale (0 no effect, 100 complete control), approximately 10 days
How it was run: as §1

[10] = system: blackgrass (Alopecurus myosuroides); assay: Test A postemergence, blackgrass; conditions: visual injury, 0 to 100 scale (0 no effect, 100 complete control), approximately 10 days
How it was run: as §1

kochia (Kochia scoparia) [11] = assay: Test A preemergence, kochia; conditions: 0 to 100 scale (0 no effect, 100 complete control)
How it was run: as §1

[12] = system: barnyardgrass (Echinochloa crus-galli); assay: Test A postemergence, barnyardgrass; conditions: visual injury, 0 to 100 scale (0 no effect, 100 complete control), approximately 10 days
How it was run: as §1

[13] = system: barnyardgrass (Echinochloa crus-galli); assay: Test A preemergence, barnyardgrass; conditions: 0 to 100 scale (0 no effect, 100 complete control)
How it was run: as §1

[14] = system: wheat (Triticum aestivum); assay: Test A postemergence, wheat; conditions: visual injury, 0 to 100 scale (0 no effect, 100 complete control), approximately 10 days
How it was run: as §1

[15] = system: foxtail, giant (Setaria faberii); assay: Test A postemergence, giant foxtail; conditions: visual injury, 0 to 100 scale (0 no effect, 100 complete control), approximately 10 days
How it was run: as §1

[16] = system: galium (catchweed bedstraw, Galium aparine); assay: Test A postemergence, galium; conditions: visual injury, 0 to 100 scale (0 no effect, 100 complete control), approximately 10 days
How it was run: as §1

[17] = system: ducksalad (Heteranthera limosa); assay: Test B flooded paddy test, ducksalad; conditions: 250 g ai/ha, applied to paddy water, visual rating after 13 to 15 days, scale 0 (no effect) to 100 (complete control)
Description: as §2

[18] = system: barnyardgrass (Echinochloa crus-galli); assay: Test B flooded paddy test, barnyardgrass; conditions: 250 g ai/ha, applied to paddy water, visual rating after 13 to 15 days, scale 0 (no effect) to 100 (complete control)
Description: as §2

Compound | Plant response rating, Ryegrass, Italian ([1]; 125 g ai/ha) | Plant response rating, Ryegrass, Italian ([1]; 500 g ai/ha) | Plant response rating, Pigweed ([2]; 125 g ai/ha) | Plant response rating, Pigweed ([2]; 500 g ai/ha) | Plant response rating, Sedge, Umbrella (Flood) [3] | Plant response rating, Ryegrass, Italian ([4]; 125 g ai/ha) | Plant response rating, Ryegrass, Italian ([4]; 500 g ai/ha) | Plant response rating, Rice (Flood) (rice (Oryza sativa)) | Plant response rating, Ragweed ([5]; 125 g ai/ha) | Plant response rating, Ragweed ([5]; 500 g ai/ha) | Plant response rating, Pigweed ([6]; 125 g ai/ha) | Plant response rating, Pigweed ([6]; 500 g ai/ha) | Plant response rating, Kochia (kochia (Kochia scoparia) [7]; 125 g ai/ha) | Plant response rating, Kochia (kochia (Kochia scoparia) [7]; 500 g ai/ha) | Plant response rating, Ragweed ([8]; 125 g ai/ha) | Plant response rating, Ragweed ([8]; 500 g ai/ha) | Plant response rating, Foxtail, Giant ([9]; 125 g ai/ha) | Plant response rating, Foxtail, Giant ([9]; 500 g ai/ha) | Plant response rating, Corn (corn (Zea mays); 125 g ai/ha) | Plant response rating, Corn (corn (Zea mays); 500 g ai/ha) | other results
CN1CC(c2cccc(Oc3ncc(F)cn3)c2)C(C(=O)Nc2ccccc2F)C1=O (single isomer, unassigned) [Compound 36] | 0 | 50 | 0 | 40 | 0 | 0 | 90 | 30 | 0 | 40 | 30 | 50 | 0 | 50 | 0 | 50 | 90 | 90 | 40 | 90 | Plant response rating, Blackgrass ([10]; 125 g ai/ha): 20; Plant response rating, Blackgrass ([10]; 500 g ai/ha): 50; Plant response rating, Kochia (kochia (Kochia scoparia) [11]; 125 g ai/ha): 0; Plant response rating, Kochia (kochia (Kochia scoparia) [11]; 500 g ai/ha): 40; Plant response rating, Barnyardgrass ([12]; 125 g ai/ha): 90; Plant response rating, Barnyardgrass ([12]; 500 g ai/ha): 90; Plant response rating, Barnyardgrass ([13]; 125 g ai/ha): 90; Plant response rating, Barnyardgrass ([13]; 500 g ai/ha): 90; Plant response rating, Wheat ([14]; 125 g ai/ha): 0; Plant response rating, Wheat ([14]; 500 g ai/ha): 60; Plant response rating, Foxtail, Giant ([15]; 125 g ai/ha): 80; Plant response rating, Foxtail, Giant ([15]; 500 g ai/ha): 80; Plant response rating, Galium ([16]; 125 g ai/ha): 40; Plant response rating, Galium ([16]; 500 g ai/ha): 70; Plant response rating, Ducksalad (Flood) [17]: 0; Plant response rating, Barnyardgrass (Flood) [18]: 60
O=C1NCC(c2cccc(Oc3ncc(F)cn3)c2)C1C(=O)Nc1cccc(F)c1F (single isomer, unassigned) [Compound 37] | 0 | 60 | 60 | 80 | 0 | 20 | 50 | 20 | 20 | 70 | 40 | 70 | 0 | 50 | 0 | 80 | 90 | 100 | 70 | 90 | Plant response rating, Blackgrass ([10]; 125 g ai/ha): 40; Plant response rating, Blackgrass ([10]; 500 g ai/ha): 70; Plant response rating, Kochia (kochia (Kochia scoparia) [11]; 125 g ai/ha): 0; Plant response rating, Kochia (kochia (Kochia scoparia) [11]; 500 g ai/ha): 70; Plant response rating, Barnyardgrass ([12]; 125 g ai/ha): 90; Plant response rating, Barnyardgrass ([12]; 500 g ai/ha): 100; Plant response rating, Barnyardgrass ([13]; 125 g ai/ha): 90; Plant response rating, Barnyardgrass ([13]; 500 g ai/ha): 90; Plant response rating, Wheat ([14]; 125 g ai/ha): 20; Plant response rating, Wheat ([14]; 500 g ai/ha): 70; Plant response rating, Foxtail, Giant ([15]; 125 g ai/ha): 70; Plant response rating, Foxtail, Giant ([15]; 500 g ai/ha): 90; Plant response rating, Galium ([16]; 125 g ai/ha): 50; Plant response rating, Galium ([16]; 500 g ai/ha): 70; Plant response rating, Ducksalad (Flood) [17]: 100; Plant response rating, Barnyardgrass (Flood) [18]: 30
